Test systems include LOX IMVI; DU-145; EKVX; CCRF-CEM; Malme-3M; HOP-92; MDA-MB-231; SF-295; SK-OV-3; M14; OVCAR-3; NCI-H522; SNB-19; NCI/ADR-RES; Hs-578T; HCT-116; UACC-257; SR; SK-MEL-2.
Holding throughout (assay): NCI-60 cell line screen, 48 h

Each structure is given as a SMILES string.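 Five compound concentrations were applied to cells in 96-well plates for 48 hours; endpoints were derived by simple linear interpolation of the resulting dose-response curve. At the GI50, growth is halved.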 Active and inactive are the calls of the source. Rule as the data show it: active = GI50 up to about 1.1 µM and inactive = higher.

Regarding `OC1(c2ccccc2)C2CC=CC2C1(c1ccccc1)c1ccccc1` (stereo not given), the GI50 in the assay on LOX IMVI was 18 µM (inactive); with DU-145, 61.7 µM (inactive); in the assay with EKVX, 20.5 µM (inactive); in the assay on CCRF-CEM, 27.8 µM (inactive); in the assay with Malme-3M it was 19.5 µM (inactive); with HOP-92 it was 33.3 µM (inactive). For the same molecule, the GI50 with MDA-MB-231 was 40.6 µM (inactive); in the assay on SF-295, 34 µM (inactive); with SK-OV-3, 38.9 µM (inactive); in the assay with M14, 32.7 µM (inactive); with OVCAR-3 it was 30.8 µM (inactive); in the assay on NCI-H522 it was 13.5 µM (inactive). Further, the GI50 is 51.3 µM (inactive) in the assay on SNB-19; 44.3 µM (inactive) in the assay on NCI/ADR-RES; 38.3 µM (inactive) in the assay on Hs-578T; 31.2 µM (inactive) in the assay with HCT-116; 27 µM (inactive) in the assay on UACC-257; 19.2 µM (inactive) with SR. Moreover, the GI50 in the assay with SK-MEL-2 is 12 µM (inactive).

Turning to `COC(=O)Cc1c(-c2[nH]c3ccccc3c2CC(=O)OC)[nH]c2ccccc12`, the GI50 in the assay with LOX IMVI is > 58.6 µM (inactive); in the assay on DU-145, > 53 µM (inactive); with EKVX, 39.4 µM (inactive); in the assay on CCRF-CEM it was > 25.2 µM (inactive); in the assay on Malme-3M, > 55.6 µM (inactive); with HOP-92 it was > 50.9 µM (inactive). Also, the GI50 in the assay with MDA-MB-231 was 38.7 µM (inactive); in the assay on SF-295, > 57.9 µM (inactive); in the assay on SK-OV-3, > 58.1 µM (inactive); in the assay on M14, > 52.4 µM (inactive); with OVCAR-3, 1.41 µM (inactive); in the assay with NCI-H522, > 28.6 µM (inactive). The GI50 was 53.5 µM (inactive) in the assay on SNB-19; > 57.3 µM (inactive) in the assay with NCI/ADR-RES; > 68.4 µM (inactive) in the assay on Hs-578T; > 54.2 µM (inactive) in the assay on HCT-116; > 56.1 µM (inactive) in the assay with UACC-257; > 55 µM (inactive) in the assay with SR. Moreover, in the assay on SK-MEL-2, the GI50 is > 57.7 µM (inactive).

Turning to `CCOc1cc2c(cc1O)C=C[C@@H]1[C@@H]2CC[C@]2(C)[C@@H](O)CC[C@@H]12`, the GI50 is 3.87 µM (inactive) in the assay with LOX IMVI; 1.53 µM (inactive) in the assay on DU-145; 4.79 µM (inactive) in the assay with EKVX; 3.15 µM (inactive) in the assay with CCRF-CEM; 1.5 µM (inactive) in the assay with Malme-3M; 29.9 µM (inactive) with HOP-92. The GI50 in the assay with MDA-MB-231 is 4.11 µM (inactive); in the assay on SF-295 it was 1.91 µM (inactive); in the assay with SK-OV-3 it was 3.34 µM (inactive); with M14 it was 2.8 µM (inactive); in the assay with OVCAR-3, 1.87 µM (inactive); in the assay on NCI-H522, 1.77 µM (inactive). Besides, the GI50 with SNB-19 was 3.52 µM (inactive); with NCI/ADR-RES, 1.37 µM (inactive); in the assay with Hs-578T, 4.19 µM (inactive); in the assay on HCT-116, 1.11 µM (active); in the assay with UACC-257, 12.5 µM (inactive); in the assay with SR it was 0.472 µM (active). Further, the GI50 in the assay on SK-MEL-2 was 4.38 µM (inactive).

Turning to `N/N=C1N=C(Cl)/C(=C/c2ccco2)N\1`, the GI50 in the assay with LOX IMVI was 27.9 µM (inactive); with DU-145, 50.4 µM (inactive); with EKVX, > 100 µM (inactive); in the assay on CCRF-CEM, 31.4 µM (inactive); in the assay on Malme-3M it was 52.5 µM (inactive); with HOP-92 it was 47.2 µM (inactive). The GI50 in the assay with MDA-MB-231 is > 100 µM (inactive); in the assay on SF-295, 38.1 µM (inactive); in the assay on SK-OV-3 it was 76 µM (inactive); with M14 it was 35.2 µM (inactive); in the assay on OVCAR-3, 28.7 µM (inactive); with NCI-H522, 22.7 µM (inactive). In addition, the GI50 was 50.5 µM (inactive) in the assay on SNB-19; 44.5 µM (inactive) with NCI/ADR-RES; 41.3 µM (inactive) in the assay with Hs-578T; 36.5 µM (inactive) with HCT-116; 52.8 µM (inactive) in the assay on UACC-257; 25.8 µM (inactive) in the assay with SR. For the same molecule, the GI50 in the assay on SK-MEL-2 is 36.2 µM (inactive).

`O=C(OCc1ccccc1)C1(N2CN(C3(C(=O)OCc4ccccc4)CCCC3)CN(C3(C(=O)OCc4ccccc4)CCCC3)C2)CCCC1`: the GI50 in the assay on LOX IMVI, in the assay with DU-145, in the assay on EKVX, with CCRF-CEM, in the assay on Malme-3M and in the assay with HOP-92 was > 10 µM (inactive) in each case. For the same molecule, the GI50 in the assay with MDA-MB-231, in the assay on SF-295, with SK-OV-3, in the assay with M14, in the assay on OVCAR-3 and in the assay with NCI-H522 was > 10 µM (inactive) throughout. For the same molecule, the GI50 with SNB-19, in the assay on NCI/ADR-RES, in the assay on Hs-578T, with HCT-116, with UACC-257 and in the assay on SR was > 10 µM (inactive) throughout. Also, the GI50 in the assay on SK-MEL-2 was > 10 µM (inactive).

Consider `C[C@]12CC[C@H](O)CC1=CC[C@@H]1[C@@H]2CC[C@]2(C)C(=O)[C@@H](N3CCOCC3)C[C@@H]12`, for which the GI50 with LOX IMVI was > 100 µM (inactive); in the assay with DU-145, > 100 µM (inactive); in the assay on EKVX, 40.6 µM (inactive); in the assay on CCRF-CEM it was 99.8 µM (inactive); in the assay on Malme-3M it was > 100 µM (inactive); in the assay on HOP-92, 50.5 µM (inactive). The GI50 is > 100 µM (inactive) in the assay on MDA-MB-231; > 100 µM (inactive) in the assay with SF-295; > 100 µM (inactive) in the assay with SK-OV-3; 78.5 µM (inactive) with M14; > 100 µM (inactive) with OVCAR-3; 23.6 µM (inactive) in the assay on NCI-H522. Further, the GI50 with SNB-19 is > 100 µM (inactive); in the assay with NCI/ADR-RES, 61.2 µM (inactive); with Hs-578T, 90.4 µM (inactive); in the assay with HCT-116, > 100 µM (inactive); in the assay on UACC-257, > 100 µM (inactive); with SR, 44.2 µM (inactive). In addition, the GI50 in the assay on SK-MEL-2 was > 100 µM (inactive).

Consider `Nc1nc(N)c2cc(-c3cc4ccccc4[nH]3)ccc2n1`, for which the GI50 in the assay on LOX IMVI is 18.5 µM (inactive); with DU-145 it was 21.3 µM (inactive); with EKVX, 29 µM (inactive); with CCRF-CEM, 35.2 µM (inactive); with Malme-3M it was 16 µM (inactive); with HOP-92, 12.2 µM (inactive). The GI50 in the assay with MDA-MB-231 was 17.2 µM (inactive); in the assay on SF-295 it was 27.6 µM (inactive); in the assay with SK-OV-3 it was 45.3 µM (inactive); with M14, 17.6 µM (inactive); in the assay with OVCAR-3, 35.6 µM (inactive); with NCI-H522, 17.5 µM (inactive). Moreover, the GI50 was 33 µM (inactive) in the assay on SNB-19; 30.3 µM (inactive) with NCI/ADR-RES; 32.1 µM (inactive) in the assay on Hs-578T; 31.8 µM (inactive) with HCT-116; 16.2 µM (inactive) in the assay with UACC-257; 30.2 µM (inactive) with SR. The GI50 in the assay with SK-MEL-2 was 18.2 µM (inactive).

Consider `NC(C(=O)O)c1cc(O)no1` (stereo not given), for which the GI50 with LOX IMVI, in the assay on DU-145, in the assay on EKVX, with CCRF-CEM, in the assay on Malme-3M and with HOP-92 was > 100 µM (inactive) in each case. The GI50 in the assay with MDA-MB-231, in the assay with SF-295, in the assay on SK-OV-3, in the assay with M14, with OVCAR-3 and in the assay with NCI-H522 was > 100 µM (inactive) each time. Besides, the GI50 in the assay with SNB-19, in the assay on NCI/ADR-RES, in the assay with Hs-578T, with HCT-116, in the assay with UACC-257 and in the assay with SR was > 100 µM (inactive) each time. The GI50 with SK-MEL-2 was > 100 µM (inactive).

In the case of `c1ccc(NNN2NC(c3ccccc3)C2c2ccccc2)cc1` (stereo not given), the GI50 is > 100 µM (inactive) with LOX IMVI; > 100 µM (inactive) in the assay on DU-145; > 100 µM (inactive) in the assay on EKVX; 59.6 µM (inactive) with CCRF-CEM; 28.9 µM (inactive) in the assay on Malme-3M; > 100 µM (inactive) with HOP-92. The GI50 in the assay with MDA-MB-231 is > 100 µM (inactive); in the assay on SF-295 it was > 100 µM (inactive); with SK-OV-3 it was > 100 µM (inactive); in the assay with M14, > 100 µM (inactive); with OVCAR-3, > 100 µM (inactive); with NCI-H522 it was 71.9 µM (inactive). Also, the GI50 with SNB-19 was > 100 µM (inactive); in the assay on NCI/ADR-RES, 97.3 µM (inactive); in the assay with Hs-578T it was > 100 µM (inactive); in the assay on HCT-116, 79.4 µM (inactive); with UACC-257, 87.9 µM (inactive); in the assay with SR, > 100 µM (inactive). Also, the GI50 in the assay on SK-MEL-2 was > 100 µM (inactive).

As to `CC(C)NC(=O)CN1CCN(C2=CC(=O)c3c(O)ccc(O)c3C2=O)CC1`, the GI50 in the assay on LOX IMVI was 6.1 µM (inactive); in the assay with DU-145, 16.1 µM (inactive); with EKVX, 19.3 µM (inactive); with CCRF-CEM it was 8.65 µM (inactive); in the assay with Malme-3M it was 2.22 µM (inactive); with HOP-92, 21.9 µM (inactive). The GI50 with MDA-MB-231 was 26.3 µM (inactive); in the assay on SF-295, 15.6 µM (inactive); in the assay on SK-OV-3 it was 26.1 µM (inactive); in the assay on M14 it was 9.33 µM (inactive); in the assay on OVCAR-3 it was 2.58 µM (inactive); in the assay on NCI-H522, 18.2 µM (inactive). For the same molecule, the GI50 with SNB-19 was 18.7 µM (inactive); in the assay with NCI/ADR-RES, 3.9 µM (inactive); in the assay with Hs-578T it was 25.9 µM (inactive); in the assay on HCT-116, 2.96 µM (inactive); in the assay on UACC-257 it was 7.18 µM (inactive); with SR it was 1.57 µM (inactive). The GI50 in the assay on SK-MEL-2 was 16.6 µM (inactive).

The values above are taken from ChEMBL document CHEMBL1201862, “PubChem BioAssay data set” (2004).
